Results on 15 compounds are retold here after patent publication US9073855B2, “BCL-2 selective apoptosis-inducing agents for the treatment of cancer and immune diseases” (AbbVie Inc., priority 2008, dated 2015).

One experiment deals with GST-Bcl-XL (Homo sapiens, UniProt Q07817). The experiment in a line: TR-FRET binding assay, GST-Bcl-XL with F-Bak peptide probe. The settings on record: TR-FRET Binding Affinity, GST-Bcl-XL, F-Bak peptide probe. An outline of the steps: (§1)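 Displacement of a fluorescein-labelled Bak peptide from the GST-tagged protein was followed by time-resolved FRET with a terbium anti-GST donor after 3 h incubation at room temperature. Inhibition constants were calculated with Wang's equation.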
In general terms: Time-resolved FRET reads energy transfer from a long-lived donor to a nearby acceptor.

Another experiment deals with GST-Bcl-2 (Homo sapiens, UniProt P10415). Kind of experiment: TR-FRET binding assay, GST-Bcl-2 with F-Bak peptide probe. The settings on record: for Ki: TR-FRET Binding Affinity, GST-Bcl-2, F-Bak peptide probe; for Binding selectivity ratio (Bcl-XL Ki/Bcl-2 Ki): ratio of TR-FRET Ki values, Bcl-XL over Bcl-2. An outline of the steps:
as §1

What is called Ki is the dissociation constant of the complex between target and ligand, obtained from inhibition or displacement. High values mean weaker binding, low ones tighter binding.

Bounds are passed on as bounds.

Chain of GST-Bcl-XL (Q07817 whole entry): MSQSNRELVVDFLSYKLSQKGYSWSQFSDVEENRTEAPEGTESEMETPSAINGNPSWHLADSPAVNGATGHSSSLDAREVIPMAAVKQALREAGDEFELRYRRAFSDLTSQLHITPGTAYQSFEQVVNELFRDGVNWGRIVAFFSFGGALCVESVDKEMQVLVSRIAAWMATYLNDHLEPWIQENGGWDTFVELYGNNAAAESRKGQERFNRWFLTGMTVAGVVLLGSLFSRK
Chain of GST-Bcl-2 (P10415 whole entry): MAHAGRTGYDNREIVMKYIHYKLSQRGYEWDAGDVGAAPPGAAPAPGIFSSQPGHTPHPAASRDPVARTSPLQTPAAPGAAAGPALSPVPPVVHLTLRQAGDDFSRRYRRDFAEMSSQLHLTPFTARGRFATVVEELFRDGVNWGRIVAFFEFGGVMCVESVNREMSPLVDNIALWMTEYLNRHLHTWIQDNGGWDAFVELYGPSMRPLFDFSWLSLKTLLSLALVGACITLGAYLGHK

As to `CC1(C)CCC(CN2CCN(c3ccc(C(=O)NS(=O)(=O)c4ccc(NCC5CN(CC(F)F)CCO5)c([N+](=O)[O-])c4)c(Oc4cccc5[nH]cnc45)c3)CC2)=C(c2ccc(Cl)cc2)C1` (centres unmarked) [Example 415, 2-(1H-benzimidazol-4-yloxy)-4-(4-{[2-(4-chlorophenyl)-4,4-dimethylcyclohex-1-en-1-yl]methyl}piperazin-1-yl)-N-{[4-({[4-(2,2-difluoroethyl)morpholin-2-yl]methyl}amino)-3-nitrophenyl]sulfonyl}benzamide], the values for the Ki at GST-Bcl-XL and on GST-Bcl-2 were 26.9 nM and 0.002 nM, respectively. The “Binding selectivity ratio (Bcl-XL Ki/Bcl-2 Ki)” value (from here on “Binding selectivity ratio”) at GST-Bcl-2 turned out to be 17326.9.

For the compound `CC1(C)CCC(CN2CCN(c3ccc(C(=O)NS(=O)(=O)c4cnc(OCC5(F)CCOCC5)c(F)c4)c(Oc4cccc5[nH]ncc45)c3)CC2)=C(c2ccc(Cl)cc2)C1` [Example 416, 4-(4-{[2-(4-chlorophenyl)-4,4-dimethylcyclohex-1-en-1-yl]methyl}piperazin-1-yl)-N-({5-fluoro-6-[(4-fluorotetrahydro-2H-pyran-4-yl)methoxy]pyridin-3-yl}sulfonyl)-2-(1H-indazol-4-yloxy)benzamide], the figures for the Ki at GST-Bcl-XL and at GST-Bcl-2 were 59.1 nM and 0.023 nM, respectively.

As to `CC1(C)CCC(CN2CCN(c3ccc(C(=O)NS(=O)(=O)c4ccc(NC5CCN(C6CCOCC6)CC5)c([N+](=O)[O-])c4)c(Oc4cccc5[nH]cnc45)c3)CC2)=C(c2ccc(Cl)cc2)C1` [Example 417, 2-(1H-benzimidazol-4-yloxy)-4-(4-{[2-(4-chlorophenyl)-4,4-dimethylcyclohex-1-en-1-yl]methyl}piperazin-1-yl)-N-({3-nitro-4-[(1-tetrahydro-2H-pyran-4-ylpiperidin-4-yl)amino]phenyl}sulfonyl)benzamide], affinity at GST-Bcl-XL was put at a Ki of 3.99 nM. At GST-Bcl-2, the Ki is 0.046 nM and the “Binding selectivity ratio” value is 87.1.

In the case of `CN1CCC(Nc2ccc(S(=O)(=O)NC(=O)c3ccc(N4CCN(CC5=C(c6ccc(Cl)cc6)CC(C)(C)CC5)CC4)cc3Oc3cccc4[nH]cnc34)cc2[N+](=O)[O-])CC1` [Example 418, 2-(1H-benzimidazol-4-yloxy)-4-(4-{[2-(4-chlorophenyl)-4,4-dimethylcyclohex-1-en-1-yl]methyl}piperazin-1-yl)-N-({4-[(1-methylpiperidin-4-yl)amino]-3-nitrophenyl}sulfonyl)benzamide], the Ki came to 1.57 nM at GST-Bcl-XL and 0.004 nM at GST-Bcl-2. In addition, the “Binding selectivity ratio” value on GST-Bcl-2 is 404.7.

Take `CC1(C)CCC(CN2CCN(c3ccc(C(=O)NS(=O)(=O)c4cnc(OCC5(F)CCN(CC#N)CC5)c(Cl)c4)c(Oc4cccc5[nH]ncc45)c3)CC2)=C(c2ccc(Cl)cc2)C1` [Example 419, N-[(5-chloro-6-{[1-(cyanomethyl)-4-fluoropiperidin-4-yl]methoxy}pyridin-3-yl)sulfonyl]-4-(4-{[2-(4-chlorophenyl)-4,4-dimethylcyclohex-1-en-1-yl]methyl}piperazin-1-yl)-2-(1H-indazol-4-yloxy)benzamide]: the Ki on GST-Bcl-XL was determined as 211 nM. Besides, on GST-Bcl-2, the affinity corresponds to a Ki of 0.197 nM and the “Binding selectivity ratio” value worked out at 1070.8.

In turn, `CC1(C)CCC(CN2CCN(c3ccc(C(=O)NS(=O)(=O)c4cnc(OCC5CCOC5)c(Cl)c4)c(Oc4cccc5[nH]ncc45)c3)CC2)=C(c2ccc(Cl)cc2)C1` (centres unmarked) [Example 420, 4-(4-{[2-(4-chlorophenyl)-4,4-dimethylcyclohex-1-en-1-yl]methyl}piperazin-1-yl)-N-{[5-chloro-6-(tetrahydrofuran-3-ylmethoxy)pyridin-3-yl]sulfonyl}-2-(1H-indazol-4-yloxy)benzamide] came in with a Ki at GST-Bcl-XL of 72.1 nM. Further, on GST-Bcl-2, affinity was put at a Ki of 0.063 nM and the “Binding selectivity ratio” value worked out at 1153.3.

In the case of `CC1(C)CCC(CN2CCN(c3ccc(C(=O)NS(=O)(=O)c4cnc(OC[C@H]5CC[C@H](O)CC5)c(Cl)c4)c(Oc4cccc5[nH]ncc45)c3)CC2)=C(c2ccc(Cl)cc2)C1` [Example 421, Trans-N-({5-chloro-6-[(4-hydroxycyclohexyl)methoxy]pyridin-3-yl}sulfonyl)-4-(4-{[2-(4-chlorophenyl)-4,4-dimethylcyclohex-1-en-1-yl]methyl}piperazin-1-yl)-2-(1H-indazol-4-yloxy)benzamide], at GST-Bcl-XL, the Ki amounted to 54 nM. Also, on GST-Bcl-2, the affinity corresponds to a Ki of 0.026 nM and the “Binding selectivity ratio” value is 2089.5.

`CC1(C)CCC(CN2CCN(c3ccc(C(=O)NS(=O)(=O)c4cnc(O[C@@H]5CCN(CC(F)F)C5)c(Cl)c4)c(Oc4cccc5[nH]ncc45)c3)CC2)=C(c2ccc(Cl)cc2)C1` [Example 422, N-[(5-chloro-6-{[(3R)-1-(2,2-difluoroethyl)pyrrolidin-3-yl]oxy}pyridin-3-yl)sulfonyl]-4-(4-{[2-(4-chlorophenyl)-4,4-dimethylcyclohex-1-en-1-yl]methyl}piperazin-1-yl)-2-(1H-indazol-4-yloxy)benzamide] returned an inhibition constant (Ki) at GST-Bcl-XL of 290 nM. Besides, on GST-Bcl-2, the affinity corresponds to a Ki of 0.071 nM and the “Binding selectivity ratio” value was determined as 4073.4.

Take `CN(C)CC(=O)N1CCO[C@H](COc2ncc(S(=O)(=O)NC(=O)c3ccc(N4CCN(CC5=C(c6ccc(Cl)cc6)CC(C)(C)CC5)CC4)cc3Oc3cccc4[nH]cnc34)cc2Cl)C1` [Example 423, 2-(1H-benzimidazol-4-yloxy)-N-[(5-chloro-6-{[(2S)-4-(N,N-dimethylglycyl)morpholin-2-yl]methoxy}pyridin-3-yl)sulfonyl]-4-(4-{[2-(4-chlorophenyl)-4,4-dimethylcyclohex-1-en-1-yl]methyl}piperazin-1-yl)benzamide]: on GST-Bcl-XL, the Ki came out at 7.57 nM. Further, on GST-Bcl-2, the Ki was under 0.01 nM and the “Binding selectivity ratio” value is on record as 756.6.

With `CN(C)CC(=O)N1CCO[C@@H](COc2ncc(S(=O)(=O)NC(=O)c3ccc(N4CCN(CC5=C(c6ccc(Cl)cc6)CC(C)(C)CC5)CC4)cc3Oc3cccc4[nH]cnc34)cc2Cl)C1` [Example 424, 2-(1H-benzimidazol-4-yloxy)-N-[(5-chloro-6-{[(2R)-4-(N,N-dimethylglycyl)morpholin-2-yl]methoxy}pyridin-3-yl)sulfonyl]-4-(4-{[2-(4-chlorophenyl)-4,4-dimethylcyclohex-1-en-1-yl]methyl}piperazin-1-yl)benzamide], the figures for the Ki at GST-Bcl-XL and at GST-Bcl-2 were 7.82 nM and under 0.01 nM, respectively. On GST-Bcl-2, the “Binding selectivity ratio” value turned out to be 782.5.

Take `CN(C)CC(=O)N1CCO[C@H](COc2ncc(S(=O)(=O)NC(=O)c3ccc(N4CCN(CC5=C(c6ccc(Cl)cc6)CC(C)(C)CC5)CC4)cc3Oc3cccc4[nH]ncc34)cc2Cl)C1` [Example 425, N-[(5-chloro-6-{[(2S)-4-(N,N-dimethylglycyl)morpholin-2-yl]methoxy}pyridin-3-yl)sulfonyl]-4-(4-{[2-(4-chlorophenyl)-4,4-dimethylcyclohex-1-en-1-yl]methyl}piperazin-1-yl)-2-(1H-indazol-4-yloxy)benzamide]: affinity at GST-Bcl-XL was put at a Ki of 3.99 nM. On GST-Bcl-2, the affinity, expressed as Ki, was 0.003 nM and the “Binding selectivity ratio” value is on record as 1282.2.

For the compound `CN(C)CC(=O)N1CCO[C@@H](COc2ncc(S(=O)(=O)NC(=O)c3ccc(N4CCN(CC5=C(c6ccc(Cl)cc6)CC(C)(C)CC5)CC4)cc3Oc3cccc4[nH]ncc34)cc2Cl)C1` [Example 426, N-[(5-chloro-6-{[(2R)-4-(N,N-dimethylglycyl)morpholin-2-yl]methoxy}pyridin-3-yl)sulfonyl]-4-(4-{[2-(4-chlorophenyl)-4,4-dimethylcyclohex-1-en-1-yl]methyl}piperazin-1-yl)-2-(1H-indazol-4-yloxy)benzamide], the Ki on GST-Bcl-XL was 4.31 nM. In addition, on GST-Bcl-2, the Ki stood at 0.007 nM and the “Binding selectivity ratio” value is on record as 604.2.

Compound `CC1(C)CCC(CN2CCN(c3ccc(C(=O)NS(=O)(=O)c4cnc(OCC5CCOCC5)c(Cl)c4)c(Oc4cccc5[nH]ncc45)c3)CC2)=C(c2ccc(Cl)cc2)C1` [Example 427, 4-(4-{[2-(4-chlorophenyl)-4,4-dimethylcyclohex-1-en-1-yl]methyl}piperazin-1-yl)-N-{[5-chloro-6-(tetrahydro-2H-pyran-4-ylmethoxy)pyridin-3-yl]sulfonyl}-2-(1H-indazol-4-yloxy)benzamide] returned a Ki at GST-Bcl-XL of 85.6 nM. At GST-Bcl-2, the Ki was found to be 0.002 nM and the “Binding selectivity ratio” value is reported as 34408.6.

On to `CC1(C)CCC(CN2CCN(c3ccc(C(=O)NS(=O)(=O)c4ccc(N[C@@H]5CCN(CC#N)C5)c([N+](=O)[O-])c4)c(Oc4cccc5[nH]cnc45)c3)CC2)=C(c2ccc(Cl)cc2)C1` [Example 428, 2-(1H-benzimidazol-4-yloxy)-4-(4-{[2-(4-chlorophenyl)-4,4-dimethylcyclohex-1-en-1-yl]methyl}piperazin-1-yl)-N-[(4-{[(3R)-1-(cyanomethyl)pyrrolidin-3-yl]amino}-3-nitrophenyl)sulfonyl]benzamide], for which the Ki came out at 15.6 nM at GST-Bcl-XL and 0.003 nM at GST-Bcl-2. Besides, the “Binding selectivity ratio” value at GST-Bcl-2 is 5832.2.

Consider `COCCOCCN1CC[C@@H](Nc2ccc(S(=O)(=O)NC(=O)c3ccc(N4CCN(CC5=C(c6ccc(Cl)cc6)CC(C)(C)CC5)CC4)cc3Oc3cccc4[nH]cnc34)cc2[N+](=O)[O-])C1` [Example 429, 2-(1H-benzimidazol-4-yloxy)-4-(4-{[2-(4-chlorophenyl)-4,4-dimethylcyclohex-1-en-1-yl]methyl}piperazin-1-yl)-N-{[4-({(3R)-1-[2-(2-methoxyethoxy)ethyl]pyrrolidin-3-yl}amino)-3-nitrophenyl]sulfonyl}benzamide], for which the Ki at GST-Bcl-XL came to 1.41 nM. Besides, at GST-Bcl-2, the inhibition constant Ki was under 0.01 nM and the “Binding selectivity ratio” value came to 140.7.
